Calls of active or inactive are those of the source. The rule behind the calls is not given here.
How the values were obtained:
[1] = molecular target: T1, Protein cereblon/Eukaryotic peptide chain release factor GTP-binding subunit ERF3A (Homo sapiens) (UniProt Q96SW2+P15170); assay: Protac activity at CRBN/GSPT1 in CD3+ T cells derived from patients assessed as reduction of GSPT1 levels in peripheral blood blast administered intravenously for 5 days by flow cytometry analysis; assay type: cell-based; conditions: CD3-positive T cell, time 5.0 day
HL-60 [2] = assay: Antitumor activity against human HL-60 cells in xenografted model assessed as reduction in CD33+/CD45+ in bone marrow at 2.5 mg/kg, BID administered for 10 consecutive days relative to control; assay type: functional; conditions: HL-60, 240 h, time 10 day
[3] = molecular target: Muscarinic acetylcholine receptor M1 (Homo sapiens) (UniProt P11229); assay: Inhibition of human muscarinic M1 receptor at 10 uM relative to control
[4] = molecular target: T1, Protein cereblon/Eukaryotic peptide chain release factor GTP-binding subunit ERF3A (Homo sapiens); assay: Protac activity at CRBN/GSPT1 in human KG-1 cells assessed as GSPT1 degradation at 1 uM incubated for 4 hrs in presence of neddylation inhibitor MLN4924 by western blot analysis; assay type: cell-based
[5] = molecular target: ATP-binding cassette sub-family C member 2 (Homo sapiens, UniProt Q92887); assay: Inhibition of MRP2 (unknown origin) at upto 3 uM
[6] = Clearance in CD-IGS rat at 2 mg/kg, iv administered as bolus dose; assay type: ADME, organism-based; conditions: in vivo
[7] = molecular target: Solute carrier organic anion transporter family member 1B3 (Homo sapiens, UniProt Q9NPD5); assay: Inhibition of OATP1B3 (unknown origin) at upto 3 uM
[8] = molecular target: Multidrug and toxin extrusion protein 2 (Homo sapiens, UniProt Q86VL8); assay: Inhibition of MATE2 (unknown origin) at upto 3 uM
[9] = molecular target: T1, Protein cereblon/Eukaryotic peptide chain release factor GTP-binding subunit ERF3A (Homo sapiens); assay: Protac activity at CRBN/GSPT1 in human DF-15 cells assessed as in depth GSPT1 degradation incubated for 20 hrs by hunter detection reagent based luminescence assay relative to control; assay type: cell-based; conditions: DF15
Cereblon/Ikaros = Cereblon/Ikaros (Homo sapiens, UniProt Q13422+Q96SW2); assay: Protac activity at CRBN/IKZF1 (unknown origin) assessed as IKZF1 degradation; assay type: protein-complex assay
[10] = Volume of distribution at steady state in cynomolgus monkey at 1 mg/kg, iv administered as bolus dose; assay type: ADME, organism-based, Macaca fascicularis; conditions: in vivo, read-out: Vdss
[11] = molecular target: T1, Protein cereblon/Eukaryotic peptide chain release factor GTP-binding subunit ERF3A (Homo sapiens); assay: Protac activity at CRBN/GSPT1 in CD3+ T cells derived from patients assessed as reduction of GSPT1 levels in T cells administered intravenously for 5 days by flow cytometry analysis; conditions: CD3-positive T cell, time 5.0 day
[12] = Terminal half life in iv dosed acute myeloid leukemia patient; assay type: ADME, organism-based; conditions: human, in vivo, read-out: beta t1/2 (converted)
[13] = molecular target: Organic anion transporter 3 (Homo sapiens, UniProt Q8TCC7); assay: Inhibition of OAT3 (unknown origin) at upto 3 uM
[14] = molecular target: Solute carrier family 22 member 2 (Homo sapiens, UniProt O15244); assay: Inhibition of OCT2 (unknown origin) at upto 3 uM
Cytochrome P450 2C19 = Cytochrome P450 2C19 (Homo sapiens, UniProt P33261); assay: Inhibition of CYP2C19 (unknown origin); assay type: ADME
[15] = molecular target: Solute carrier family 22 member 6 (Homo sapiens, UniProt Q4U2R8); assay: Inhibition of OAT1 (unknown origin) at upto 3 uM
Bone marrow cell = assay: Antiproliferative activity in bone marrow cells derived from AML patients assessed as cell growth inhibition; assay type: functional, cell-based; conditions: Homo sapiens
HL-60 [16] = assay: Antitumor activity against human HL-60 cells in xenografted model assessed as reduction in CD33+/CD45+ in bone marrow at 5 mg/kg, BID administered for 5 consecutive days relative to control; assay type: functional; conditions: HL-60, 120 h, time 5 day
[17] = Volume of distribution in iv dosed acute myeloid leukemia patient; assay type: ADME, organism-based; conditions: human, in vivo
CYP2C9 = CYP2C9 (Homo sapiens, UniProt P11712); assay: Inhibition of CYP2C9 (unknown origin) at 2.5 uM relative to control; assay type: ADME
[18] = Volume of distribution at steady state in CD1 mouse at 2 mg/kg, iv administered as bolus dose; assay type: ADME, organism-based; conditions: in vivo, read-out: Vdss
[19] = molecular target: T1, Protein cereblon/Eukaryotic peptide chain release factor GTP-binding subunit ERF3A (Homo sapiens); assay: Protac activity at CRBN/GSPT1 in human KG-1 cells assessed as GSPT1 degradation by measuring accumulation of ATF4 at 200 uM incubated for 4 hrs by western blot analysis; assay type: cell-based
[20] = molecular target: T1, Protein cereblon/Eukaryotic peptide chain release factor GTP-binding subunit ERF3A (Homo sapiens); assay: Protac activity at CRBN/GSPT1 in human KG-1 cells assessed as GSPT1 degradation at 1 uM incubated for 4 hrs by western blot analysis; assay type: cell-based
[21] = MRT in cynomolgus monkey at 1 mg/kg, iv administered as bolus dose; assay type: ADME, organism-based, Macaca fascicularis; conditions: in vivo
Homo sapiens = organism: Homo sapiens; assay: Inhibition of P-gp (unknown origin) at upto 3 uM; conditions: dose microM <=3
[22] = molecular target: T1, Protein cereblon/Eukaryotic peptide chain release factor GTP-binding subunit ERF3A (Homo sapiens); assay: Protac activity at CRBN/GSPT1 in human KG-1 cells assessed as GSPT1 degradation by measuring accumulation of CHOP at 200 uM incubated for 4 hrs by western blot analysis; assay type: cell-based
[23] = molecular target: Broad substrate specificity ATP-binding cassette transporter ABCG2 (Homo sapiens, UniProt Q9UNQ0); assay: Inhibition of BCRP (unknown origin) at upto 3 uM
[24] = molecular target: Muscarinic acetylcholine receptor M2 (Homo sapiens) (UniProt P08172); assay: Inhibition of human muscarinic M2 receptor at 10 uM relative to control
[25] = Total clearance in iv dosed acute myeloid leukemia patient; assay type: ADME, organism-based; conditions: human, in vivo
[26] = molecular target: T1, Protein cereblon/Eukaryotic peptide chain release factor GTP-binding subunit ERF3A (Homo sapiens); assay: Protac activity at CRBN/GSPT1 in human KG-1 cells assessed as GSPT1 degradation at 1 uM incubated for 4 hrs in presence of proteasome inhibitor bortezomib by western blot analysis; assay type: cell-based
[27] = MRT in CD1 mouse at 2 mg/kg, iv administered as bolus dose; assay type: ADME, organism-based; conditions: in vivo
[28] = Clearance in cynomolgus monkey at 1 mg/kg, iv administered as bolus dose; assay type: ADME, organism-based, Macaca fascicularis; conditions: in vivo
[29] = molecular target: T1, Protein cereblon/Eukaryotic peptide chain release factor GTP-binding subunit ERF3A (Homo sapiens); assay: Protac activity at CRBN/GSPT1 in human KG-1 cells assessed as GSPT1 degradation by measuring accumulation of ATF3 at 200 uM incubated for 4 hrs by western blot analysis; assay type: cell-based
[30] = molecular target: T1, Protein cereblon/Eukaryotic peptide chain release factor GTP-binding subunit ERF3A (Homo sapiens); assay: Protac activity at CRBN/GSPT1 in human NB-4 cells assessed as induction of GSPT1 degradation at 0.001 to 1 uM incubated for 4 hrs by western blot analysis; assay type: cell-based; conditions: dose 0.001-1 µM
[31] = molecular target: T1, Protein cereblon/Eukaryotic peptide chain release factor GTP-binding subunit ERF3A (Homo sapiens); assay: Protac activity at CRBN/GSPT1 in human DF-15 cells assessed as maximum GSPT1 degradation incubated for 20 hrs by hunter detection reagent based luminescence assay relative to control; assay type: cell-based; conditions: DF15
[32] = Toxicity in cynomolgus monkey assessed as effect on cardiovascular system; parameters: species or system Macaca fascicularis; conditions: in vivo
[33] = molecular target: T1, Protein cereblon/Eukaryotic peptide chain release factor GTP-binding subunit ERF3A (Homo sapiens); assay: Protac activity at CRBN/GSPT1 in human DF15 cells assessed as in depth GSPT1 degradation incubated for 4 hrs by hunter detection reagent based luminescence assay; assay type: cell-based
[34] = molecular target: Solute carrier organic anion transporter family member 1B1 (Homo sapiens, UniProt Q9Y6L6); assay: Inhibition of OATP1B1 (unknown origin) at upto 3 uM
[35] = MRT in CD-IGS rat at 2 mg/kg, iv administered as bolus dose; assay type: ADME, organism-based; conditions: in vivo
[36] = Clearance in CD1 mouse at 2 mg/kg, iv administered as bolus dose; assay type: ADME, organism-based; conditions: in vivo
[37] = molecular target: T1, Protein cereblon/Eukaryotic peptide chain release factor GTP-binding subunit ERF3A (Homo sapiens); assay: Protac activity at CRBN/GSPT1 in human DF15 cells assessed as maximum GSPT1 degradation incubated for 4 hrs by hunter detection reagent based luminescence assay relative to control; assay type: cell-based
[38] = molecular target: Protein cereblon/Zinc finger protein Aiolos (Homo sapiens, UniProt Q96SW2+Q9UKT9); assay: Protac activity at CRBN/IKZF3 (unknown origin) assessed as IKZF3 degradation; assay type: protein assay
[39] = molecular target: T1, Protein cereblon/Eukaryotic peptide chain release factor GTP-binding subunit ERF3A (Homo sapiens); assay: Protac activity at CRBN/GSPT1 in human DF-15 cells assessed as GSPT1 degradation at 0.2 to 3 uM incubated for 4 to 6 hrs by Incell-hunter detection reagent based luminescence assay relative to control; assay type: cell-based; conditions: DF15, dose 0.2-3 µM, time 4-6 hrs
[40] = Volume of distribution at steady state in CD-IGS rat at 2 mg/kg, iv administered as bolus dose; assay type: ADME, organism-based; conditions: in vivo, read-out: Vdss
[41] = molecular target: Voltage-gated inwardly rectifying potassium channel KCNH2 (Homo sapiens, UniProt Q12809); assay: Inhibition of human ERG
[42] = molecular target: T1, Protein cereblon/Eukaryotic peptide chain release factor GTP-binding subunit ERF3A (Homo sapiens); assay: Protac activity at CRBN/GSPT1 in CD3+ T cells derived from patients assessed as reduction of GSPT1 levels at 2.4 mg, iv administered for 5 days by flow cytometry analysis relative to control; assay type: organism-based; parameters: scale not given: the % may be the effect or the level left; conditions: CD3-positive T cell, time 5.0 day

T1 sequence (P15170 whole entry, looked up): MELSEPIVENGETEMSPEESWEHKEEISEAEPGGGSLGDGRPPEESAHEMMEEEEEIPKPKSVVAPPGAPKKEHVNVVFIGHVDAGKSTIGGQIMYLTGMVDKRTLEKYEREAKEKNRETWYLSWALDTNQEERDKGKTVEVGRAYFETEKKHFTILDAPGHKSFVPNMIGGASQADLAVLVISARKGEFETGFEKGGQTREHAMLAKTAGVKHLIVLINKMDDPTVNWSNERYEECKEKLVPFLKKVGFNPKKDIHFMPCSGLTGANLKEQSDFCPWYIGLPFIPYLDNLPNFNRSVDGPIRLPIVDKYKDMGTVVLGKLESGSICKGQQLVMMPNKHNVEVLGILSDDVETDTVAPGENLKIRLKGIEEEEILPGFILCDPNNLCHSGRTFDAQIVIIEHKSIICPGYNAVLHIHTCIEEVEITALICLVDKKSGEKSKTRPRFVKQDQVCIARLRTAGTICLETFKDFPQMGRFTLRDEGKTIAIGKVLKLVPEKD
T1 sequence (Q96SW2 whole entry, looked up): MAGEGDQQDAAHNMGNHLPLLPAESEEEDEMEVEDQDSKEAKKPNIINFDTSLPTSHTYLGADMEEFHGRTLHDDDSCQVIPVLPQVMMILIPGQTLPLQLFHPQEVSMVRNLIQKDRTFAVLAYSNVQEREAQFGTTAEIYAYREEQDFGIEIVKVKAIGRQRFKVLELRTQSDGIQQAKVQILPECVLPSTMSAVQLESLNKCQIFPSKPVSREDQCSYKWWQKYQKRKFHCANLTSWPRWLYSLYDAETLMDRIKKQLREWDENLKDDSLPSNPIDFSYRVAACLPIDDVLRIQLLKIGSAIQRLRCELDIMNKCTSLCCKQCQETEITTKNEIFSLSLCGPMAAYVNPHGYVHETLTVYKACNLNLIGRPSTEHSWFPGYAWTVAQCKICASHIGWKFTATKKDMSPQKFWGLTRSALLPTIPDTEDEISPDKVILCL
Chain of Solute carrier organic anion transporter family member 1B1 (Q9Y6L6 whole entry): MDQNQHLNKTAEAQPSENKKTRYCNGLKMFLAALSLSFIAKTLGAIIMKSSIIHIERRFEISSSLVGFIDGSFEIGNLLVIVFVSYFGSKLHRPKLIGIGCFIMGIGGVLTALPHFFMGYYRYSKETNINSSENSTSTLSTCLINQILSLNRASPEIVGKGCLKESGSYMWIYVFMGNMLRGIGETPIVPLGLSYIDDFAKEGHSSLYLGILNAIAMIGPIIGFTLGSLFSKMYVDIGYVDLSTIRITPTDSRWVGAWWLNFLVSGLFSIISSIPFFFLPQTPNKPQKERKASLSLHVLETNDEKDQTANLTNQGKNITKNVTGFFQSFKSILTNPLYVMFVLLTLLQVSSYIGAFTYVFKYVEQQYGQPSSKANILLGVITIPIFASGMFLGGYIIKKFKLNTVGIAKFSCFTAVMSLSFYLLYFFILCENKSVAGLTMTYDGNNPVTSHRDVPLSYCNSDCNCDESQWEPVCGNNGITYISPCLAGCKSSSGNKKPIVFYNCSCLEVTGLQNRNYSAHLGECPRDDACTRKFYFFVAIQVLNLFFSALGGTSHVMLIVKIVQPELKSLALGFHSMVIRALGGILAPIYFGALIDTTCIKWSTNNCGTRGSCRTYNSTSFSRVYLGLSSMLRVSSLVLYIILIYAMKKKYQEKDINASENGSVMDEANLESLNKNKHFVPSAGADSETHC
Chain of Muscarinic acetylcholine receptor M1 (Homo sapiens) (P11229 whole entry): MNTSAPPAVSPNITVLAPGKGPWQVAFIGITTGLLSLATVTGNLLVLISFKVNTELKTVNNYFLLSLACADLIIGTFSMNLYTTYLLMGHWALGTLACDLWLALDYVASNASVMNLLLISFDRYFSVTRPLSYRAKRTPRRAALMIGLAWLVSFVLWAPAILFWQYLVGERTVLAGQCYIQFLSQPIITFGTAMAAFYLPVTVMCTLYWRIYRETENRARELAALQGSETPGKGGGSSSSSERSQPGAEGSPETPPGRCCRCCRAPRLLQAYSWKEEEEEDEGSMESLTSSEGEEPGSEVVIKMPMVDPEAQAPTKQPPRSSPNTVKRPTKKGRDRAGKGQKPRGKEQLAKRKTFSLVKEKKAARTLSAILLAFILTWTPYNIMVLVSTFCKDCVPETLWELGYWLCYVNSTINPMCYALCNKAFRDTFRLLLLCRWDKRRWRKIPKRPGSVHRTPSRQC
Chain of Solute carrier family 22 member 6 (Q4U2R8 whole entry): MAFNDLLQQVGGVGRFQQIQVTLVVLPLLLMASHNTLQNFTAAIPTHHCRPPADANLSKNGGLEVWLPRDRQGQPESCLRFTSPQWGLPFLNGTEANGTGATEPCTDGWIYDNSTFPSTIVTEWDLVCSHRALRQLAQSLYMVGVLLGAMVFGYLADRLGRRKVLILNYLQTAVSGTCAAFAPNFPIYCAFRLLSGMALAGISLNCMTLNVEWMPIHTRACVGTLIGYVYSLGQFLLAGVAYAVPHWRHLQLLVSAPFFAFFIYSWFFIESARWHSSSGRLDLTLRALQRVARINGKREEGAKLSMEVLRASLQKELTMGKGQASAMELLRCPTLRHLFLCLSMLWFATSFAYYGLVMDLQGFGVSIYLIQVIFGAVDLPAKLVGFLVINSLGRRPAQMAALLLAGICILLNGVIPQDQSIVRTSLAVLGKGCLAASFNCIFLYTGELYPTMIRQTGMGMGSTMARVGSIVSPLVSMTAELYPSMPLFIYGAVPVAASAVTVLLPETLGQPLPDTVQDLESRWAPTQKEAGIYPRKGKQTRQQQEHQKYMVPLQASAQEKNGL
Chain of Solute carrier family 22 member 2 (O15244 whole entry): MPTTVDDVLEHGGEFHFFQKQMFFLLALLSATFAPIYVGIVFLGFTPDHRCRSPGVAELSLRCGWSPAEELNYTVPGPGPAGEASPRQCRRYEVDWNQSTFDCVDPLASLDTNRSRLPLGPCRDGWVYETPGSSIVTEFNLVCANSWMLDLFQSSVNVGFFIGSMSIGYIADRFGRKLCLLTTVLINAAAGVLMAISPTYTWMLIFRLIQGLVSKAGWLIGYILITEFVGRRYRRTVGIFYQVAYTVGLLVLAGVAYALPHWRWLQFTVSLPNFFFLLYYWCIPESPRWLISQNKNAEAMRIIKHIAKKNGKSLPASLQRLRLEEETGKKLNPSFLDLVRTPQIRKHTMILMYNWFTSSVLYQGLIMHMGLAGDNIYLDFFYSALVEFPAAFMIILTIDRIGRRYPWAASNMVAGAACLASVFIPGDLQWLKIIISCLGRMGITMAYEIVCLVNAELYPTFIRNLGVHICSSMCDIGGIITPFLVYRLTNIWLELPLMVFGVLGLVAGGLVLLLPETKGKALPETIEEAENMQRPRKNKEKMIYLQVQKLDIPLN
Chain of Protein cereblon/Zinc finger protein Aiolos (Q96SW2 whole entry): as the sequence (Q96SW2 whole entry, looked up) above
Chain of Protein cereblon/Zinc finger protein Aiolos (Q9UKT9 whole entry): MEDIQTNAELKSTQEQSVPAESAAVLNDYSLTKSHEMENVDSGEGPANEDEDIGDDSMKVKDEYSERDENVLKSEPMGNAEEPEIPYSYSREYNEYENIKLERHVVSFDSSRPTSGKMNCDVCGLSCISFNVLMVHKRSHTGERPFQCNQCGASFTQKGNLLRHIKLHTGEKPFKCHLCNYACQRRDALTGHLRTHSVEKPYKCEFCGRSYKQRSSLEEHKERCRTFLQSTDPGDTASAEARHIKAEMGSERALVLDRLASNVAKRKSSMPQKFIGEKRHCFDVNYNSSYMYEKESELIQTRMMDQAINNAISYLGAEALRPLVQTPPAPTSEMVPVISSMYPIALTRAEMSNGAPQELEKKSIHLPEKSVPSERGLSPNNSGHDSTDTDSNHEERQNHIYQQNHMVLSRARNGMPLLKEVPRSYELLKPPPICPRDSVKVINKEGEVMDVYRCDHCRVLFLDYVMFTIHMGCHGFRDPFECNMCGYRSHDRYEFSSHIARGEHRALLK
Chain of Cereblon/Ikaros (Q96SW2 whole entry): as the sequence (Q96SW2 whole entry, looked up) above
Chain of Cereblon/Ikaros (Q13422 whole entry): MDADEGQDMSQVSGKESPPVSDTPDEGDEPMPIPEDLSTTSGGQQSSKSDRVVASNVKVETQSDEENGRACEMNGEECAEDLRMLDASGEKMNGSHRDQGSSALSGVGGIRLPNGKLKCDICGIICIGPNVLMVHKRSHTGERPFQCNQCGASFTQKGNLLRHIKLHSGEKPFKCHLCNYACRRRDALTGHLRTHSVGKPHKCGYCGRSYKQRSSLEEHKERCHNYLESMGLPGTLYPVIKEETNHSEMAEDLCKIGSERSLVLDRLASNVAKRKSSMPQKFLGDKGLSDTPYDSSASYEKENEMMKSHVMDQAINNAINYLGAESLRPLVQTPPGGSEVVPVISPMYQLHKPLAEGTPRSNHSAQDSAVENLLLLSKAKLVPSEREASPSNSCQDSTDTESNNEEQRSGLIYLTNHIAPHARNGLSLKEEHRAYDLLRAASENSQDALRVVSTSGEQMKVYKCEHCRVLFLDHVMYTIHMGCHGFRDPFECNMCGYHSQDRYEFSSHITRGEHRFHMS
Chain of CYP2C9 (P11712 whole entry): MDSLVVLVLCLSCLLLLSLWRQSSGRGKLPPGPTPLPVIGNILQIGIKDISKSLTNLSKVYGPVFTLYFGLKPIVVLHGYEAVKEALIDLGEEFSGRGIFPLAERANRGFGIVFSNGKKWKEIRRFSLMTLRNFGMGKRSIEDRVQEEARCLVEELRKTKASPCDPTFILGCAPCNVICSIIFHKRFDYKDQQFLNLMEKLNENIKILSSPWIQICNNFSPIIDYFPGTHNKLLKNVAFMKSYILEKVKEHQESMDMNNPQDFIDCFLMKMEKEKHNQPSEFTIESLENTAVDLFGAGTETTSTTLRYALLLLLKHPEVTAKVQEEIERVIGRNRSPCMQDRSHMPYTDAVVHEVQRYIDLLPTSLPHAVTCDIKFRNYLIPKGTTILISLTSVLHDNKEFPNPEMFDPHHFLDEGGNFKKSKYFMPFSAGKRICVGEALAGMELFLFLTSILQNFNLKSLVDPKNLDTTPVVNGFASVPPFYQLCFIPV

O=C1CCC(N2Cc3cc(CNC(=O)C(F)(F)c4ccc(Cl)cc4)ccc3C2=O)C(=O)N1 (configuration not stated)
Activity [1]: Dose-dependent effect | inhibition in vivo at 2.5 mg/kg (HL-60 [2]): 71.5% | inhibition [3]: > 50% | Activity [4]: inactive | inhibition (INH) [5]: Not Active | clearance [6]: 28.3 mL/min/kg | inhibition (INH) [7]: Not Active | inhibition (INH) [8]: Not Active | Activity [9]: Active | EC50 (Cereblon/Ikaros): > 10 µM | Vd [10]: 1.1 L/kg | Activity [11]: Dose-dependent effect | half-life [12]: 9.3 h | inhibition (INH) [13]: Not Active | inhibition (INH) [14]: Not Active | IC50 (Cytochrome P450 2C19): 1.53 µM | inhibition (INH) [15]: Not Active | EC50 (Bone marrow cell): 0.006 µM | inhibition in vivo at 5 mg/kg (HL-60 [16]): 54% | Vd [17]: 61.7 L | inhibition at 2.5 µM (CYP2C9): 41% | Vd [18]: 1 L/kg | Activity [19]: Active | Activity [20]: Active | MRT [21]: 4 h | inhibition (Homo sapiens): inactive | Activity [22]: Active | inhibition (INH) [23]: Not Active | inhibition [24]: > 50% | clearance [25]: 116 mL/min | Activity [26]: inactive | MRT [27]: 0.24 h | clearance [28]: 6 mL/min/kg | Activity [29]: Active | Activity [30]: Active | Emax [31]: 88% | Activity [32]: Non-Toxic | Activity [33]: Active | inhibition (INH) [34]: Not Active | MRT [35]: 1.3 h | clearance [36]: 67.9 mL/min/kg | Emax [37]: 51% | EC50 [38]: > 10 µM | Activity [39]: 75% | Vd [40]: 2.2 L/kg | IC50 [41]: 5.3 µM | Activity [42]: 90%
